Reference: US7393869B2, “Methods of using thiazolidine derivatives to treat cancer or inflammation” (QLT Inc., priority 2002, dated 2008)

Assays:
[1] = molecular target: T1, PTPN1 (Homo sapiens, UniProt P18031); assay: In vitro phosphatase assay (malachite green, phosphate release from ppC SRC 60 peptide); assay type: biochemical; details: read-out: Inhibition of PTPN1 IC50
T1 sequence (P18031 1-435): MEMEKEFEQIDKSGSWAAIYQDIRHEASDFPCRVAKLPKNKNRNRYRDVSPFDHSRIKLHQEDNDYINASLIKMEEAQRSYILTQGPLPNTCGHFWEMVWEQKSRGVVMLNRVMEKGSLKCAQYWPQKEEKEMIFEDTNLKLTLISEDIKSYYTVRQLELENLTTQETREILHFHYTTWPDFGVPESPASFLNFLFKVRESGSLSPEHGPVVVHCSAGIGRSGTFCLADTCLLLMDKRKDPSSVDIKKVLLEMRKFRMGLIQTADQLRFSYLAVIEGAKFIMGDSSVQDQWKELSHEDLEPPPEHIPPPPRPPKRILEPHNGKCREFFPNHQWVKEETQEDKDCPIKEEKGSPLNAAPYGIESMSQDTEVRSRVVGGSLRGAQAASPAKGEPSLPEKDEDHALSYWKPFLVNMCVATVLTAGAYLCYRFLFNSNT
Protocol: Compounds of formula (I) and formula (Ia) were tested in the following assay for their ability to inhibit the activity of the desired phosphatase.
The enzyme (phosphatase) activity was determined in a reaction that measured phosphate relase from tyrosine phospho-specific peptides using a method first described by Harder et al., Biochem. J. (1994), Vol. 298, pp. 395-401. This is a non-radioactive method for measuring free phosphate by the malachite green method first described by Van Veldhoven and Mannaerts, Anal Biochem. (1987), Vol. 161, pp. 45-48. 10× assay buffer (250 mM Tris:100 mM, β-mercaptoethanol, 50 mM EDTA; pH 7.2) was diluted to 5× concentration (conc.) with distilled H2O (dH2O). Then 71.4 μM of substrate working stock solution was prepared in dH2O. […]
(§1) The assay plate was incubated at room temperature (21° C.) for 15 minutes. […] The plate was “read” on Bio-tek Instruments EL312e microplate Bio-Kinetics™ Reader at 590 nm and the data collected as per instrument manual.
(§2) The blank and negative controls were read, and blanks were subtracted from the average of negative control values and sample values, and the % inhibition was expressed by the following formula: % Inhibition=100−[corrected sample reading/corrected Negative Control reading*100].

[2] = tested on: prostate cancer cell line PC3; assay: Cell migration in a Boyden chamber; assay type: cell-based; details: cell line not given
Source text: A range of cell lines are used in this assay, particularly the prostate cancer cell line PC3 and PTPN12 mouse embryonic fibroblasts (MEFs). The role of PTPN12 in migration was established based on the observations of PTPN12 negative MEFs. Cell adhesion and migration are dynamic biological activities involving the assembly and disassembly of a large number of extracellular and intracellular molecules, for example, actin, which are regulated in turn by protein phosphorylation. […] Migration is reduced in PTPN12 knock-out MEFs. By extension, a PTPN12 inhibitor should reduce cell migration in a Boyden chamber. Therefore, as a readout for PTPN12 activity, the following assay is designed to analyze cell migration in Boyden chambers. […]
For tumour cell lines, stock cells (ie. PC3 cells) are grown to 50-70% confluency in T175 flasks. […] Fluorescence of migrated cells is read in a Fluoroskan Ascent FL™ (or equivalent) with bottom reading at excitation/emission wavelength of 485/538 nm. Only those cells that have migrated through the pores of the FluoroBlok™ membrane will be read. […]
Data is expressed as fluorescence unit (FU) from the sum of middle 25 areas per 24-well or as percentage of migration inhibition by following formula: % of invasion inhibition=100−FU of compound treated cell invasion/FU of DMSO treated cell invasion times 100. […]

[3] = molecular target: T2, PTPN12 (Homo sapiens, UniProt Q05209); assay: In vitro phosphatase assay (malachite green, phosphate release from ppC SRC 60 peptide); assay type: biochemical; details: read-out: Inhibition of PTPN12 IC50
T2 construct: The truncated version was used as it was far easier to handle and gave parallel results to the full length protein; made in house; host or cells: bacterial strain ER2566
T2 sequence (Q05209 28-293 limits assumed): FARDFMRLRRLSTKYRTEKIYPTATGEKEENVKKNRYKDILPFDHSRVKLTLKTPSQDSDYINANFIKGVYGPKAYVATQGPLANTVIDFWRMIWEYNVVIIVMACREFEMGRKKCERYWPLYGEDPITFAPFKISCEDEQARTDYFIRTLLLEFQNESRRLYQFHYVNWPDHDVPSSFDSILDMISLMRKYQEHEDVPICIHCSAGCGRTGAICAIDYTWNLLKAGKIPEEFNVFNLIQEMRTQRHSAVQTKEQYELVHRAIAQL
Source text: Expression of human truncated PTPN12 (PTP-PEST-N) as a fusion protein required that the cDNA be ligated into the polyclonal site situated in frame and upstream of the intein gene of the IMPACT™ expression vector pTWIN-II. The truncated version was used as it was far easier to handle and gave parallel results to the full length protein in comparison testing. For the purpose of simplicity, PTP-PEST-N will be used interchangeably with PTPN12 in these Examples.
Active PTPN12 enzyme is expressed from the IMPACT™ vector system in the bacterial strain ER2566. Recombinant PTPN12 protein is purified from bacterial cells using affinity chromatography on chitin-agarose beads followed by a chemical process whereby PTPN12 is released from its affinity tag. A complete quantitative and qualitative analysis of the protein is monitored using Coomassie-Blue staining of SDS-PAGE separated preparations and by PTPN12-specific western blotting. […]
(§3) The enzyme (phosphatase) activity was determined in a reaction that measured phosphate relase from tyrosine phospho-specific peptides using a method first described by Harder et al., Biochem. J. (1994), Vol. 298, pp. 395-401. […]
as §1

[4] = molecular target: T3, PTPN2 (Homo sapiens, UniProt P17706); assay: as above; assay type: biochemical; details: read-out: Inhibition of PTPN2 IC50
T3 construct: made in house; host or cells: bacterial expression system (IMPACT, New England BioLabs)
T3 sequence (P17706 1-415): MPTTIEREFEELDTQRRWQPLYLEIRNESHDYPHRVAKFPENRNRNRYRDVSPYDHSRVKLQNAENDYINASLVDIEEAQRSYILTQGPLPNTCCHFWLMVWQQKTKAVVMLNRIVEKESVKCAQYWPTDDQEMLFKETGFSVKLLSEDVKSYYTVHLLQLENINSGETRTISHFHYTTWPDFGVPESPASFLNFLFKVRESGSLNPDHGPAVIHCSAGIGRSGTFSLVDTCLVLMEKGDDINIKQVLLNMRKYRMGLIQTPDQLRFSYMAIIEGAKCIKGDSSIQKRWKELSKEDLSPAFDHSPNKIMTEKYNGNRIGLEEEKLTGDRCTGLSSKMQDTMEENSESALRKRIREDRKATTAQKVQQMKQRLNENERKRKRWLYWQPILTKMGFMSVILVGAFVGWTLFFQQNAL
Source text: PTPN2 was cloned from a human placental cDNA library in the IMPACT™ (New England BioLabs) bacterial expression system. The technology was first described by Chong et al., Gene (1997), Vol. 192, pp. 271-281. The IMPACT™ Protein Purification System was purchased commercially from New England BioLabs. The resulting product was used in the development of a protein phosphatase assay for high-throughput screening (HTS) of target molecules and in other assays described herein (see Example 2).
This activity was considered to be in the high range as compared to other recombinant protein tyrosine phosphatases assayed. […]
as §3, §1, §2

[5] = tested on: PC3 Cells; assay: Cell proliferation (3H-thymidine incorporation); assay type: cell-based; details: Homo sapiens, PC-3
Source text: (§4) This procedure (Jelinkova, R. B. et al., “Antiproliferative effect of a lectin- and anti-Thy-1.2 antibody-targeted HPMA copolymer-bound doxorubicin on primary and metastatic human colorectal carcinoma and on human colorectal carcinoma transfected with the mouse Thy-1.2 gene”, Bioconjug. Chem. (2000, September-October), Vol. 11, No. 5, pp. 664-73) is used to assess the effect compounds have on various cell lines with respect to proliferation. The rate of anchorage-independent growth of various tumor cells is quantified by measuring the amount of free isotopic thymidine that has been incorporated into the cells over a period of time. The effect of any compound to inhibit the proliferation of various tumor cells could be used as an indication of its ability to prevent disease progression in cancer.
(§5) Cultured tumour cells are harvested cells as per normal procedures: i.e. trypsinize, centrifuge and count cells. A volume of 90 μL is used to seed 5,000 cells/well in a 96 well plate. Cells are incubated for 24 hours at 37° C. under 5% CO2. After incubation, cells should be 80-90% confluent.
(§6) ^3H-thymidine (Amersham) is diluted in cell culture media to a concentration of 100 μCi/mL. The test compound is diluted in the thymidine broth to 10× the final desired concentration.
(§7) Then 10 μL of diluted compound is added to the 90 μL of cells already present in the 96-well plates. Six replicates wells are done per treatment in columns 2 to 11. Plates were mixed by rocking.
(§8) A known cytotoxic compound such as staurosporine is used in relatively high concentrations as a positive control in column 1. Diluted DMSO is used as a negative control in column 12. The plate is incubated for exactly 24 hours at 37° C.
(§9) After incubation, plates are observed under the microscope for obvious cell death, abnormal cell shape, crystal formation of the compound, etc. Then 25 μL volume of cold 50% TCA is added slowly to the 100 μL volume already in each well, and incubated for 1-2 hours at 4° C. The plates are then washed 5× in tap water and allowed to dry completely (usually overnight) at ambient temperature. Finally, 100 μL of scintillation fluid is added to each well and the plates are counted in a Wallac 1450 Microbeta™ counter according to user manual instructions.
(§10) The amount of inhibition is determined by the following formula: % inhibition=100−[(AVG treatment−AVG positive control)/[…]]

[6] = tested on: H460 Cells; assay: Cell proliferation (3H-thymidine incorporation); assay type: cell-based; details: Homo sapiens, NCI-H460
Source text: as §4, §5, §6, §7, §8, §9, §10

| IC50 [1] [nM] | IC50 [3] [nM] | IC50 [4] [nM] | SMILES | inhibition at 25 µM [2] [%] | inhibition at 50 µM [5] [%] | inhibition at 50 µM [6] [%] |
| --- | --- | --- | --- | --- | --- | --- |
| 1500 | 1100 | 950 | Cc1ccc(C=C2SC(=S)N(CCC(=O)Nc3ccc(S(=O)(=O)Nc4nccs4)cc3)C2=O)cc1 [3-[5-(4-methylbenzylidene)-4-oxo-2-thioxothiazolidin-3-yl]-N-[4-(thiazol-2-ylsulfamoyl)-phenyl]-propionamide] | 87 | 47 | 43 |
| 3000 | 1500 | 1600 | Cc1ccc(C=C2SC(=S)N(CCC(=O)Nc3ccc(S(N)(=O)=O)cc3)C2=O)cc1 [3-[5-(4-methylbenzylidene)-4-oxo-2-thioxothiazolidin-3-yl]-N-(4-sulfamoylphenyl)-propionamide] | 55 | 35 | 45 |
